How the values were obtained:
[1] = system: osteosarcoma cells and immortalized cell lines; experiment: Cell survival, summary statement; format: cell-based; settings: for impact on cell survival (in words): 2 μM, 72 hours; for reduction of cell survival: 20 μM
Experimental: (§1) MG63 and TE85 human osteosarcoma cells, and ROS 17/2.8 rat osteosarcoma cells were grown in DMEM/F12 phenol-red free medium containing 10% charcoal-stripped fetal bovine serum (FBS) and supplemented with 100 units/ml penicillin, 100 μg/ml streptomycin. Cell were incubated at 37° C. under 5% CO2 in air. Cells were plated at 5×10^4 cells per well into 24 well plates containing 1 ml of medium per well. After allowing the cells to attach overnight, media in the wells were replaced with fresh 1 ml medium. Human fetal osteoblasts (hFOB) cells and hFOB cells overexpressing estrogen receptor-alpha (hFOB-ERα) and estrogen receptor-beta (hFOB-ERβ) were grown in DMEM/F12 medium containing FBS, penicillin, streptomycin and Geneticin (300 μg/mL). The laboratory of Dr. B. L. Riggs at Mayo Clinic provided primary human osteoblast (HOB) cells. HOB cells were basically established from cancellous bone obtained as waste from orthopedic procedures and cultured as explants to generate the osteoblast-like monolayers as described by Borke et al., J. Clin. Endocrinol. Metab., 1988, 67:1299-1304. Human FOB cells and hFOB cells stably transfected with estrogen receptors (ERs) were maintained at 34° C., while all other cells were incubated at 37° C. under 5% CO2 in air.
(§2) Estrogen metabolites were diluted 1000 fold to give the final required concentrations in each well, and maintained for 72 hrs. The metabolites 2ME, 2OHE, and E2 were purchased from Sigma Chemical Company (St. Louis, Mo.). Stock solutions for each metabolite were made in 95% ethanol. Cell growth was measured by taking the viable cell count. At the end of metabolite treatment, cells were harvested, stained with trypan blue, and counted under a light microscope.

[2] = system: MG63 human osteosarcoma cells; experiment: Cell survival, viable cell count with trypan blue; format: cell-based; settings: for cell survival: 20 and 50 μM
Experimental: as §1, §2
MG63 cells were treated with 0, 2, and 10 μM concentrations of 2ME in the presence or absence of 100 nM ICI for 72 hours. The cells were harvested and the viable cell counts were taken after staining with trypan blue.

| SMILES | impact on cell survival (in words) [1] | reduction of cell survival [1] | impact on cell survival (in words) ([2]; 2 μM, 72 hrs) | cell survival ([2]; 72 hrs) | impact on cell survival (in words) ([2]; 100 nM ICI alone, 72 hours) |
| --- | --- | --- | --- | --- | --- |
| COc1cc2c(cc1O)CC[C@@H]1[C@@H]2CC[C@]2(C)C(=O)CC[C@@H]12 [2-methoxyestrone] | minimal impact |  |  |  |  |
| C[C@]12CC[C@@H]3c4cc(O)c(O)cc4CC[C@H]3[C@@H]1CC[C@@H]2O [2OHE, 2-hydroxyestradiol] | minimal impact | 60% | little impact | about 40% |  |
| C[C@]12CC[C@@H]3c4ccc(O)cc4CC[C@H]3[C@@H]1CC[C@@H]2O [E2, 17β-estradiol] | minimal impact | 50% | little impact | ~50% |  |
| C[C@]12CC[C@@H]3c4ccc(O)cc4C[C@@H](CCCCCCCCC[S+]([O-])CCCC(F)(F)C(F)(F)F)[C@H]3[C@@H]1CC[C@@H]2O (stereo partly shown) [ICI] |  |  |  |  | little impact |

From patent publication US6730665B1, “Treatment of bone cancer” (Mayo Foundation for Medical Education and Research, priority 1999, dated 2004)
